Measurements: patent US9968645B2, “Method for enhanced production of morinda metabolites” (priority 2014, dated 2018)

Tested on: DSS-induced ulcerative colitis in mouse
Test: Acute mouse ulcerative colitis model, colitis induced by 4% dextran sulfate (DSS)
Type: in vivo
Conditions: Male BalbC mice, 20 mg/kg co-fed with 4% DSS for 7 days
Procedure: The therapeutic efficacy of the methanolic extracts of MO hairy roots was examined in an acute mouse ulcerative colitis model. The mouse ulcerative colitis model is used to predict ulcerative colitis and treatment of that disease in human subjects (e.g. Low et. al., 2013). Male BalbC mice in groups of 10 were housed in Good Animal Care Protocol conditions. Colitis was induced by 4% dextran sulfate (DSS). In a pilot dosing study (50 mg/kg, 150 mg/kg, and 450 mg/kg) of MO root extracts on UC, an unexpected finding was made. […] Subsequently the effect of drug treatment on colitis was investigated by co-feeding the mice extracts from MO native plants or hairy root culture at doses below 50 mg/kg along with 4% DSS for 7 days. 5-amino-salicylic acid (5-ASA) was used as a positive treatment control. Animals were weighed, and stool consistency was monitored daily to determine the disease activity index (DAD. All animals were anesthetized and the colons were separated from the proximal rectum, and the colon length was measured between the ileo-cecal junction and the proximal rectum. [table]

In the case of `Nc1ccc(O)c(C(=O)O)c1` [5-ASA, 5-amino-salicylic acid], the “DAI (disease activity index)” value is reported as 3.0 ± 2.22, the Length of colon is reported as 6.77 ± 0.19 cm and the “% of mice developing ulcer” value (including disruption of colonic crypts and damaged glandular structures) is reported as 60%.
